For the experiment, the system named is Plasmodium falciparum. Briefly: GSK_TCMDC: Inhibition of Plasmodium falciparum 3D7 in whole erythrocytes, using parasite LDH activity as an index of growth. As to conditions: Plasmodium falciparum, 3D7. The format is functional, organism-based.
As to `O=C(/C=C/c1ccc(Cl)c(Cl)c1)NCCCCN1CCC(c2c[nH]c3ccccc23)CC1`, the XC50 is 859 nM.

Compound `CN1CCCN(Cc2ccc(-c3cccc(NC(=O)c4cccc(Cl)c4)c3)cc2)CC1` returned an XC50 of 837 nM.

For the compound `CC1CN(Cc2ccccc2)CCN1c1ccc(NC(=O)c2ccc(F)cc2)cc1` (configuration not stated), the XC50 worked out at 1010 nM.

As to `Cc1nc(-c2nc(N3CCC(C(N)=O)CC3)ncc2-c2ccsc2)sc1C`, the XC50 amounted to 902 nM.

`Fc1ccc2[nH]c(-c3ccc(-c4ccc(CN5CCN(CCN6CCOCC6)CC5)cc4)s3)nc2c1` gave an XC50 of 147 nM.

`CN(C)CCCOc1ccc(CNCc2cccc(Oc3ccc(Cl)cc3)c2)cc1` registered an XC50 of 824 nM.

With `Fc1ccc(-c2csc3ncnc(Cl)c23)cc1`, the XC50 turned out to be 331 nM.

With `CCC(CC(C)C(=O)O)=C(c1ccccc1)c1ccccc1` (configuration not stated), the XC50 was found to be 224 nM.

As to `COc1ccc(O)c(CN2CCN(c3cc(C)ccc3C)CC2)c1`, the XC50 worked out at 1010 nM.

In the case of `Cc1nc(C)c(-c2ccc(Oc3ccc(Cl)c(Cl)c3)cc2)c(O)c1Cl`, the XC50 turned out to be 106 nM.

`NCC(=O)NC12CC3CC(CC(C3)C1)C2` had an XC50 of 1200 nM.

Compound `CN(C)CCNCc1ccc(-c2ccc(-c3nc4ccccc4[nH]3)s2)cc1` displayed an XC50 of 569 nM.

For the compound `NC(=O)Nc1ccc2c(Nc3ccc(OCc4ccccc4)cc3)ncnc2c1`, the XC50 was 1260 nM.

`CC1(C)NC(=N)NC(=N)N1OCC=Cc1ccccc1` displayed an XC50 of 4.24 nM.

Regarding `CC(C)(C)CCOC(=O)N1CCc2c(cc(O)c(O)c2Cl)C(c2ccc(O)cc2)C1` (configuration not stated), the XC50 came out at 752 nM.

`CCNc1cc(C(=O)N[C@@H](Cc2ccccc2)[C@H](O)CNCCC(C)(C)C)c(F)c(N2CCCCS2(=O)=O)c1` showed an XC50 of 797 nM.

For `Cc1ccc(Cc2c(N)nc3nc(N)nc(N)c3c2C)cc1`, the XC50 came out at 188 nM.

The compound `COc1cc(C(=O)NCCCN2CCN(c3cccc(Cl)c3)CC2)ccc1-c1cc2cc(Cl)c(Cl)cc2[nH]1` gave an XC50 of 468 nM.

In turn, `Cc1cc(NC(=O)c2cccs2)ccc1OC1CCN(Cc2ccc(C#N)cc2)CC1` had an XC50 of 721 nM.

Consider `Cn1ccnc1Sc1ncccc1[N+](=O)[O-]`, for which the XC50 turned out to be 968 nM.

Consider `COc1ccc(-n2ccnc2)cc1CNC1CCN(CC2Cn3c(=O)ccc4ccc(F)c2c43)CC1` (configuration not stated), for which the XC50 was 927 nM.

In the case of `O=C(Nc1c(F)cccc1F)c1cccc(-c2nn3ccccc3c2-c2ccnc(Nc3cccc(-c4cnco4)c3)n2)c1`, the XC50 was 361 nM.

Compound `CC(=O)Nc1ccc(OCCCN(Cc2ccccc2OC(F)(F)F)c2ccc(C(F)(F)F)c(C#N)c2)c(Cl)c1` had an XC50 of 813 nM.

Take `c1ccc(-c2nnc(-c3ccccn3)nc2NC2CCCCC2)cc1`: the XC50 stood at 910 nM.

In the case of `CC(C)(C)OC(=O)c1c(NC(=O)/C=C/c2ccc(O)c(O)c2)sc2c1CCCC2`, the XC50 was 819 nM.

`COc1cccc(C(=O)N2CCOC(CCN3CCC(c4ccccc4)CC3)(c3ccc(Cl)c(Cl)c3)C2)c1` (configuration not stated) had an XC50 of 505 nM.

Turning to `COc1ccc(OC)c(-c2ccc(O)c(CNCC(C)c3ccccc3)c2)c1` (configuration not stated), the XC50 is 933 nM.

As to `CC(CN(C)C)C(=O)Nc1cccc(-c2ccc(-c3nc4cc(C(F)(F)F)ccc4[nH]3)cc2)c1` (configuration not stated), the XC50 stood at 248 nM.

The compound `OCC1CCN(Cc2cccc(-c3ccc(-c4nc5cc(C(F)(F)F)ccc5[nH]4)s3)c2)CC1` registered an XC50 of 588 nM.

`CC(C)(C)c1ccc(CNCC(C)(C)c2nc(-c3ccnc(N)n3)c(-c3ccc(Cl)c(O)c3)[nH]2)cc1`: the XC50 turned out to be 697 nM.

For the compound `Cc1cccc2nc(-c3cccc(-c4cccc(NC(=O)NCc5cccc(F)c5)c4)c3)[nH]c12`, the XC50 came out at 453 nM.

As for `CCCNCc1ccc(-c2ccc(CN(C(=O)c3nn(-c4ccccc4)nc3C)C(C)CN(C)C)cc2)nc1` (configuration not stated), the XC50 was found to be 923 nM.

On to `O=C(Nc1cccnc1)c1cc(-c2cccnc2)nc2ccc(Cl)cc12`, for which the XC50 stood at 1060 nM.

`O=S(=O)(NCCN1CCCC1)c1ccc(-c2ccc(CNC3Cc4ccccc4C3)cc2)cc1F` came in with an XC50 of 999 nM.

On to `CCOc1cc(Cl)c(C(C)NC(=O)c2cccc(OC)c2)cc1OCC` (configuration not stated), for which the XC50 is 956 nM.

As to `CCCCNc1ccc(C(=O)NC2CCN(C[C@H](O)c3ccnc4ccc(OC)cc34)CC2)cc1`, the XC50 worked out at 442 nM.

For `O=C(/C=C/c1ccc(C(F)(F)F)cc1)NCCCCCN1CCN(C(=O)Nc2ccc(Cl)c(Cl)c2)CC1`, the XC50 is 867 nM.

On to `CN1CCCc2ccc(NC(=O)c3cc(-c4ccc(Cl)cc4)cs3)cc2C1`, for which the XC50 amounted to 793 nM.

Take `Cc1nc(-c2nc(NCc3ccccn3)ncc2-c2ccsc2)sc1C`: the XC50 was found to be 559 nM.

As to `CCCNCc1ccc(-c2ccc(CN(CCOC)C(=O)CCc3ccc(OC)cc3)cc2)nc1`, the XC50 came to 981 nM.

`CCCNCCc1ccc(NS(=O)(=O)c2cccc(-c3ccc(Cl)cc3)c2)cc1` showed an XC50 of 975 nM.

`CN(C)CCCNc1ncnc2c1[nH]c1ccc(Cl)cc12` registered an XC50 of 279 nM.

Compound `Cc1ccc(C2(C)CC(C)(C)N(C(=O)COc3ccc4ccccc4c3)c3ccccc32)cc1` (configuration not stated) registered an XC50 of 113 nM.

`Cc1[nH]c2ccccc2c1C=NNc1nc(=Nc2ccccc2)[nH]c(=Nc2ccccc2)[nH]1`: the XC50 stood at 926 nM.

The compound `CC[C@H]1CN2CCc3cc(OC)c(OC)cc3[C@@H]2C[C@@H]1C[C@H]1NCCc2c1cc(OC)c(OC)c2Br` displayed an XC50 of 650 nM.

`O=C(N[C@@H](Cc1ccccc1)C(=O)NCCN1CCOCC1)c1ccc(O)c(-c2ccc(Cl)c(Cl)c2)c1`: the XC50 was 921 nM.

In turn, `O=C(Nc1ccc(Oc2cccnc2)cc1)C1CCN(Cc2cc(Cl)ccc2O)CC1` registered an XC50 of 1350 nM.

With `CN(C)CCNC(=O)c1cc2c(-c3ccc(Cl)cc3)nn(C)c2s1`, the XC50 came to 665 nM.

In turn, `COc1nc2c(CCN3CCC(NCc4ccc5c(n4)NC(=O)CO5)CC3)c(Cl)cnc2cc1F` displayed an XC50 of 418 nM.

Consider `Cc1cc(N)c2cc(NC(=O)c3cccc(C(=O)Nc4ccc5nc(C)cc(N)c5c4)c3)ccc2n1`, for which the XC50 was 256 nM.

Compound `Nc1nc(N)c2c(CCc3ccc(Cl)c(Cl)c3)cccc2n1` came in with an XC50 of 669 nM.

In the case of `Cc1cccc2nc(-c3cccc(-c4ccc(NC(=O)CCc5c[nH]cn5)cc4)c3)[nH]c12`, the XC50 came to 302 nM.

Consider `CC(Oc1ccc(Cl)cc1)C(=O)Nc1cc(C(F)(F)F)ccc1-n1cncn1` (configuration not stated), for which the XC50 came to 151 nM.

Regarding `CNCCNCc1cccc(-c2ccc(-c3nc4ccccc4[nH]3)s2)c1`, the XC50 was determined as 830 nM.

As for `Cc1ccc(S(=O)(=O)n2nccc2-c2c(-c3ccc(Cl)cc3)noc2C)cc1`, the XC50 turned out to be 809 nM.

In turn, `CCCC(C)N(Cc1ccc(C(C)(C)C)cc1)C(=O)c1cccc(C#N)c1` (configuration not stated) gave an XC50 of 1050 nM.

Turning to `CCOc1cc(C(=O)N[C@@H](Cc2ccccc2)[C@H](O)CNCc2cc(OC)cc(OC)c2)cc(N2CCCC2=O)c1`, the XC50 is 852 nM.

Consider `CCCOc1ccccc1-c1nc2[nH]c3c(c2c(=O)[nH]1)CCN(C)C3`, for which the XC50 was found to be 367 nM.

In turn, `Cc1[nH]c(C)c(-c2ccc(CCc3cccc(C(F)(F)F)c3)nc2)c(=O)c1Cl` displayed an XC50 of 101 nM.

Turning to `O=[N+]([O-])c1ccc(-c2ccc(C=NNc3nc(Nc4ccccc4)nc(Nc4ccccc4)n3)o2)cc1`, the XC50 was 1430 nM.

The compound `COCCOc1nc(N)nc2ncc(Cc3cc(OC)ccc3OC)c(C)c12` showed an XC50 of 426 nM.

As for `COc1cc2c(cc1NC(=O)CN1CCN(C(=O)c3ccco3)CC1)oc1ccccc12`, the XC50 came to 422 nM.

`CCc1ccc(Cc2cnc3nc(N)nc(N)c3c2C)cc1CC` had an XC50 of 285 nM.

In the case of `CC(C)CN1CCCN(Cc2cccc(NC(=O)c3ccc(-c4ccccc4)cc3)c2)CC1`, the XC50 is 883 nM.

In turn, `Cc1nc(N)nc(N)c1C#CC1CCCC1` gave an XC50 of 768 nM.

Consider `COc1cc2nc(N(C)C)nc(Nc3ccc4c(cnn4Cc4ccccc4)c3)c2cc1OC`, for which the XC50 was 44 nM.

As to `CC1CCCN(C(=O)C(C)Nc2cc(Cl)ccc2N2CCOCC2)C1` (configuration not stated), the XC50 amounted to 316 nM.

Take `COc1ccc(-c2cccc(NC(=O)c3ccc(Cl)cc3)c2)cc1CN1CCNCC1`: the XC50 was found to be 840 nM.

As to `CCCC(C)c1ccc(N2C(N)=NC(N)=NC2(C)C)cc1` (configuration not stated), the XC50 came out at 6.27 nM.

As to `O=c1cc(NCCCNCc2cccc(OC(F)(F)F)c2)[nH]c2ccccc12`, the XC50 stood at 854 nM.

As for `COc1ccc(CN(C)CCOc2ccc(NC(=O)c3cccc4c(=O)c5cc(SC)ccc5[nH]c34)cc2)cc1OC`, the XC50 turned out to be 877 nM.

Turning to `O=C(Nc1cccc(-c2cccc(-c3nc4cc(F)ccc4[nH]3)c2)c1)Nc1ccc2c(c1)OCO2`, the XC50 worked out at 137 nM.

Compound `CCOC(=O)c1ccc(-n2c(C)cc(C=C3SC(=Nc4ccccc4)N(C4CCCC4)C3=O)c2C)cc1` displayed an XC50 of 1170 nM.

Turning to `O=C(Nc1ccc(C(=O)OCC(c2ccccc2)c2ccccc2)cc1)N[C@@H](Cc1ccc(O)cc1)C(=O)NC1CCN(Cc2ccc(O)cc2)C1` (some centres not stated), the XC50 came out at 782 nM.

The compound `CCc1c(C)nc(-n2nc(C)cc2NC(=O)CC(c2ccccc2)c2ccccc2)[nH]c1=O` registered an XC50 of 652 nM.

`CC(C)(C)c1ccc(CN2CCC(CNC(=O)c3cc(-c4ccccc4)nc4ccccc34)CC2)cc1` displayed an XC50 of 1020 nM.

The compound `CC1CCN(C(=O)C(Cc2c[nH]c3ccccc23)NS(=O)(=O)c2ccc(Cl)cc2)CC1` (configuration not stated) registered an XC50 of 717 nM.

`CN1CCN(c2ccnc3ccc(NC(=O)Nc4ccc5c(c4)CCC5=O)cc23)CC1`: the XC50 was 330 nM.

`Cc1cc(NC(=O)[C@H](CC(C)C)Nc2ccc(C#N)c3ccccc23)ccc1F` registered an XC50 of 777 nM.

Consider `COc1ccc(NC(=O)c2ccc(Br)c(C)c2)cc1N1CCN(CCCc2c[nH]c3ccccc23)CC1`, for which the XC50 is 382 nM.

`Cc1ccc(-c2cc(C(=O)Nc3ccc(S(=O)(=O)N4CCCC(C)C4)cc3)[nH]n2)c(O)c1` (configuration not stated) gave an XC50 of 280 nM.

Consider `CN1CCN(c2cccc(-c3nnc(-c4ccc(OCC(=O)NCc5ccc(C(F)(F)F)cc5)c([N+](=O)[O-])c4)o3)c2)CC1`, for which the XC50 is 661 nM.

Compound `COc1ccccc1NC(=O)CSc1nc2cccnc2n1-c1ccccc1OC` returned an XC50 of 362 nM.

Take `Cc1ccccc1C1CCN(C2CCC(NC(=O)c3cc(-c4ccc(Cl)cc4)cs3)CC2)CC1` (configuration not stated): the XC50 came to 158 nM.

The compound `Fc1ccc2[nH]c(-c3cccc(-c4ccc(CNCc5ccccc5)cc4)c3)nc2c1` displayed an XC50 of 266 nM.

`O=C(/C=C/c1ccc(Cl)c(Cl)c1)N1CCC(NCc2ccc3[nH]ccc3c2)CC1` yielded an XC50 of 1020 nM.

Consider `O=S(=O)(c1ccccc1Cl)N1CCCCC(c2ccc(C(F)(F)F)cc2)=N1`, for which the XC50 came out at 942 nM.

The values are drawn from ChEMBL document CHEMBL1157539, “Thousands of chemical starting points for antimalarial lead identification” (Nature, 2010).
